In PubChem BioAssay (NCI):
Where “and” joins values, the source holds several entries; their conditions need not be identical. Equal entries are not always repeated.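 The compound was tested at five concentrations on cells cultured in 96-well plates, with a 48-hour exposure period. At the GI50, growth is halved. TGI: concentration producing complete growth inhibition.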

Legend:
Experiment in all cases: NCI tumour cell line growth inhibition, 48 h
M14 melanoma = test system: M14 melanoma
LXFL 529 NSCLC = test system: LXFL 529 NSCLC
SK-MEL-5 melanoma = test system: SK-MEL-5 melanoma
CAKI-1 renal = test system: CAKI-1 renal
OVCAR-4 ovarian = test system: OVCAR-4 ovarian
SF-295 CNS = test system: SF-295 CNS
HOP-62 NSCLC = test system: HOP-62 NSCLC
RXF 393 renal = test system: RXF 393 renal
HOP-92 NSCLC = test system: HOP-92 NSCLC
NCI-H23 lung = test system: NCI-H23 lung
RPMI-8226 leukemia = test system: RPMI-8226 leukemia
CCRF-CEM leukemia = test system: CCRF-CEM leukemia
UACC-62 melanoma = test system: UACC-62 melanoma
OVCAR-8 ovarian = test system: OVCAR-8 ovarian
P388 leukemia = test system: P388 leukemia
MDA-N = test system: MDA-N
MDA-MB-231 breast = test system: MDA-MB-231 breast
MOLT-4 leukemia = test system: MOLT-4 leukemia
SN12K1 renal = test system: SN12K1 renal

`CCCCCCCCCCCC[C@@H](O)[C@H]1CC[C@H]([C@H](O)CCCC[C@H](O)CCCCC[C@@H](O)CC2=C[C@H](C)OC2=O)O1` was tested, and the TGI (M14 melanoma) was 5.25 µM and 10.4 µM, the TGI (LXFL 529 NSCLC) was 10.8 µM and the GI50 (SK-MEL-5 melanoma) was 0.275 µM. The TGI (SK-MEL-5 melanoma) was 7.16 µM and 2.21 µM, the GI50 (CAKI-1 renal) was 5.39 µM and the TGI (CAKI-1 renal) was 10.5 µM. For the same compound, the TGI (OVCAR-4 ovarian) was 10.6 µM, the TGI (SF-295 CNS) was 5.31 µM and 8.02 µM and the GI50 (HOP-62 NSCLC) was 3.98 µM. For the same compound, the TGI (HOP-62 NSCLC) was 5.41 µM and 10.6 µM, the TGI (RXF 393 renal) was 8.02 µM and the TGI (HOP-92 NSCLC) was 6.23 µM and 9.94 µM. The GI50 (NCI-H23 lung) was under 0.051 µM, the TGI (NCI-H23 lung) was 5.8 µM and 10.2 µM and the GI50 (RPMI-8226 leukemia) was 1.56 µM and 0.888 µM. For the same compound, the TGI (RPMI-8226 leukemia) was 7.92 µM and 7.46 µM, the GI50 (CCRF-CEM leukemia) was 1.98 µM and the TGI (CCRF-CEM leukemia) was 7.58 µM. The TGI (UACC-62 melanoma) was 5.14 µM and 6.06 µM, the GI50 (OVCAR-8 ovarian) was 3.09 µM and the TGI (OVCAR-8 ovarian) was 5.8 µM and 20.3 µM. The TGI (P388 leukemia) was 3.76 µM, the TGI (MDA-N) was 7.63 µM and 15.4 µM and the GI50 (MDA-MB-231 breast) was 2.86 µM. The TGI (MDA-MB-231 breast) was 7.56 µM and 10.6 µM, the GI50 (MOLT-4 leukemia) was 1.74 µM and 0.891 µM and the TGI (MOLT-4 leukemia) was 4.06 µM.
For `CCN(CC)CCOc1cccc2nc3c(cc12)Cn1c-3cc2c(c1=O)COC(=O)C2(O)CC` (stereo not given), the GI50 (M14 melanoma) was 1.11 µM, the TGI (M14 melanoma) was 11.5 µM and the GI50 (SK-MEL-5 melanoma) was 1.08 µM. For the same compound, the TGI (SK-MEL-5 melanoma) was 6.31 µM, the GI50 (CAKI-1 renal) was 0.889 µM and the TGI (CAKI-1 renal) was 13.8 µM. For the same compound, the GI50 (OVCAR-4 ovarian) was 11.2 µM and 8.77 µM, the TGI (OVCAR-4 ovarian) was 25.9 µM and 29.1 µM and the GI50 (SF-295 CNS) was 0.261 µM and 0.691 µM. The TGI (SF-295 CNS) was 5.19 µM and 9.4 µM, the GI50 (HOP-62 NSCLC) was 0.356 µM and the TGI (HOP-62 NSCLC) was 2.63 µM. The GI50 (RXF 393 renal) was 1.4 µM and 10.6 µM, the TGI (RXF 393 renal) was 6.08 µM and 28.7 µM and the GI50 (HOP-92 NSCLC) was 5.42 µM and 4.83 µM. For the same compound, the TGI (HOP-92 NSCLC) was 22.5 µM and 18.3 µM, the GI50 (SN12K1 renal) was 1.03 µM and 1.18 µM and the TGI (SN12K1 renal) was 11.4 µM and 14.1 µM. The GI50 (NCI-H23 lung) was 0.506 µM and 0.87 µM, the TGI (NCI-H23 lung) was 4.19 µM and 4.86 µM and the GI50 (RPMI-8226 leukemia) was 1.47 µM. For the same compound, the TGI (RPMI-8226 leukemia) was 22.5 µM, the GI50 (CCRF-CEM leukemia) was 0.0125 µM and 0.0735 µM and the TGI (CCRF-CEM leukemia) was 0.791 µM. For the same compound, the GI50 (UACC-62 melanoma) was 0.147 µM and 0.273 µM, the TGI (UACC-62 melanoma) was 0.955 µM and 1.56 µM and the GI50 (OVCAR-8 ovarian) was 1.24 µM and 1.47 µM. The TGI (OVCAR-8 ovarian) was 30.8 µM and 15.4 µM, the GI50 (MDA-N) was 13 µM and the TGI (MDA-N) was 35.1 µM. For the same compound, the GI50 (MDA-MB-231 breast) was 19.8 µM, the TGI (MDA-MB-231 breast) was 46.4 µM and the GI50 (MOLT-4 leukemia) was 0.103 µM.
